Test [1] relates to D. u. howardi adults. Type of test: in vivo, Diabrotica undecimpunctata howardi. As to conditions: 1% incorporated into TEX×PEP bait, petri-dish tests. From the text:
A noncucurbit carrier, 10-mesh corn grits (71% of which passed through a 2-mm screen), was obtained from Illinois Cereal Mills, Paris, Ill. (designated as pesticide carrier grits, 980). This carrier was impregnated with different levels of cucurbitacins by addition of varying amounts of a chloroform extract of AND×MAX fruit containing 0.12% cucurbitacins B and D (Metcalf, et al., Proc. Natl. Acad. Sci. USA, 77:3769-3772 (1980), Metcalf, et al., Environ. Entomol., 11:921-927 (1982)). The cucurbitacin-containing areas were scraped from plates, extracted in anhydrous methanol, centrifuged, and the UV absorption at 210 nm determined by UV spectrophotometry. Content of cucurbitacins was quantified from standard curves of pure cucurbitacins B, D, E and I, and E-glycoside (Metcalf, et al., Proc. Natl. Acad. Sci. USA, 77:3769-3772 (1980), Metcalf, et al., Environ. Entomol., 11:921-927 (1982)).
The various dried, ground, and insecticide-treated baits were given preliminary field evaluation by placing uniform amounts in petri-dish halves (150-mm diameter) that were placed at random on the ground in cucurbit and corn rows heavily infested ith SCR, WCR, and SCB adults. Ten dishes were used for each treatment; the maximum dosage of dried baits used was 300 mg per dish, equivalent to […]. Mortality counts of adult beetles in the dishes were made after 20-40 h.

For test [2], the system named is northern corn rootworm (NCR). As to the kind of experiment: Sticky trap attraction in corn, phenylethanol analogues (Example 6). Format: in vivo, Diabrotica barberi. The conditions noted are these: four replicates; for Mean number of NCR per trap (± standard deviation): 24 hour. The procedure, abridged:
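Field sticky traps (TangleTrap-coated cartons) baited with 100 mg or 100 μL test chemical on cotton wicks unless otherwise indicated; untreated wicks as controls. Four replicates per treatment, spaced 10 m apart on 1 m posts at corn field edges. Readout: mean beetles caught per trap after ~24 h; log-transformed ANOVA with Duncan's test, P=0.05.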

Test [3] deals with SCR. As to the kind of experiment: Limit of response rating of squash blossom volatiles on sticky traps (Example 5). Format: in vivo, Diabrotica undecimpunctata howardi. As to conditions: 24 hour; four replicate traps; 0.01 mg to 200 mg. The procedure, abridged: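 Adult Diabrotica beetles were tested against cylindrical sticky traps baited with cotton wicks holding 0.01 mg to 200 mg of individual Cucurbita maxima blossom volatiles. Response limit rated by trap catch.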

Test [4] deals with western corn rootworm (WCR). In words: Sticky trap attraction in corn, phenylethanol analogues (Example 6). Type of test: in vivo, Diabrotica virgifera virgifera. The conditions noted are these: Table 16; 100 mg per trap; four replicates; 24 hour. The protocol: Test chemicals (purchased from Aldrich Chemical Co.; Milwaukee, Wis.) were applied by capillary micropipettes to cotton dental wicks that were attached to tops of 1.0 liter cylindrical paper cartons covered with TangleTrap™, Grand Rapids, Mich. The trapping techniques used were as previously described in Example 1. Unless otherwise indicated, all treatments were made at a dosage of 100 mg or 100 μL of attractant per trap. Control traps had untreated wicks. Four replicates of treated and untreated traps were positioned randomly 10 meters apart on top of 1 m high posts along the edges of 25-50 ha. fields of hybrid corn (Zea mays), infested with adult NCR, SCR, and WCR beetles. Several experiments detailed in the Tables were made in a 0.4 ha plot of sweet corn (Illini X-tra Sweet).
Attraction of Diabrotica species adults of the sticky traps was measured by the mean number of beetles caught after 1 day (ca. 24 hours) exposure. The significance of the treatments was determined by analysis of variance and the individual means were separated by Duncan's multiple range test (Statistical Package for the Social Sciences, Nie, et al., 2nd. ed. McGraw-Hill, New York (1975). The data was logarithmically transformed for statistical analysis. Means and standard deviations are presented for the untransformed data. Significance levels were set at P=0.05 for all statistical analyses.

Where [5] appears, read: day 1 after single 100 mg dosage on cotton wick.
Setting [6] is: day 2 after single 100 mg dosage on cotton wick.
The mark [7] stands for this setting: day 3 after single 100 mg dosage on cotton wick.
Setting [8] is: day 4 after single 100 mg dosage on cotton wick.
Setting [9] is: day 5 after single 100 mg dosage on cotton wick.
Where [10] appears, read: day 6 after single 100 mg dosage on cotton wick.
[11] abbreviates: day 7 after single 100 mg dosage on cotton wick.
Setting [12] is: day 8 after single 100 mg dosage on cotton wick.
[13] abbreviates: day 11 after single 100 mg dosage on cotton wick.

For `C=CCc1ccc(O)c(OC)c1` [XXIV, eugenol], in test [1], the “increase in the kill of SCR beetles” value was found to be 4 fold. Further, the “Mean number (control subtracted) of NCR per trap” value stood at 88.2 per trap in test [2] (setting [5]); 67.3 per trap in test [2] (setting [6]); 14.3 per trap in test [2] (setting [7]); 18.0 per trap in test [2] (setting [8]); 20.7 per trap in test [2] (setting [9]); 29.9 per trap in test [2] (setting [10]). Besides, the “Mean number (control subtracted) of NCR per trap” value in test [2] (setting [11]) came out at 30.2 per trap; in test [2] (setting [12]), 35.5 per trap; in test [2] (setting [13]), 10.0 per trap.
Take `OCC=Cc1ccccc1` [XVIII, cinnamyl alcohol]: the “Attractant Rating SCR (by limit of response)” value in test [3] was “+2 (10-30)”. Further, the “Mean number of NCR per trap (± standard deviation)” value was 50.7 ± 50.9b per trap in test [2] (Table 16, 100 mg per trap); 3.5 ± 2.4a per trap in test [2] (Table 18, 1 mg); 4.0 ± 0.8ab per trap in test [2] (Table 18, 3 mg); 8.5 ± 2.1bc per trap in test [2] (Table 18, 10 mg); 15.2 ± 4.2c* per trap in test [2] (Table 18, 30 mg); 127.0 ± 24.2b per trap in test [2] (Table 20, 100 mg per trap). Further, the “Mean number (control subtracted) of NCR per trap” value in test [2] (setting [5]) worked out at 52.0 per trap; in test [2] (setting [6]), 65.3 per trap; in test [2] (setting [7]), 17.3 per trap; in test [2] (setting [8]), 19.5 per trap; in test [2] (setting [9]), 17.7 per trap; in test [2] (setting [10]), 7.7 per trap. Moreover, the figures for the “Mean number (control subtracted) of NCR per trap” value in test [2] (setting [11]), in test [2] (setting [12]) and in test [2] (setting [13]) were 10.4 per trap, 11.0 per trap and 9.8 per trap, respectively. Moreover, the “Mean number of WCR per trap (±standard deviation)” value in test [4] turned out to be 4.0 ± 1.6a per trap.
